# Laboratory results from patent US10947252B2, “Inhibitors of KEAP1-Nrf2 protein-protein interaction” (Janssen Pharmaceutica NV, priority 2018, dated 2021).
# How the values were obtained:
# [1] = test system: Glo-Response ARE-luc2P HEK293 cell line; assay: ARE luciferase reporter cell-based assay; details: Homo sapiens, HEK293, 24 h, average of results obtained;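 note: luciferase signal tracks Nrf2 activation of the ARE once compounds disrupt KEAP1-Nrf2 binding, read with One-Glo reagent, DMSO serving as low control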
# [2] = target: Kelch domain of human KEAP1 (321-624 aa) (Homo sapiens (Human), UniProt Q14145); assay: KEAP1 KELCH ThermoFluor binding assay; details: KEAP Kelch […], 1,8-ANS, pH 7.0, average of results obtained, read-out: Tf Kd;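 note: Ligand-induced melting temperature shift of E. coli-expressed KEAP1 Kelch protein, Kd estimated from concentration-response curves of ΔTm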
# Sequence of Kelch domain of human KEAP1 (321-624 aa) (Q14145 321-624): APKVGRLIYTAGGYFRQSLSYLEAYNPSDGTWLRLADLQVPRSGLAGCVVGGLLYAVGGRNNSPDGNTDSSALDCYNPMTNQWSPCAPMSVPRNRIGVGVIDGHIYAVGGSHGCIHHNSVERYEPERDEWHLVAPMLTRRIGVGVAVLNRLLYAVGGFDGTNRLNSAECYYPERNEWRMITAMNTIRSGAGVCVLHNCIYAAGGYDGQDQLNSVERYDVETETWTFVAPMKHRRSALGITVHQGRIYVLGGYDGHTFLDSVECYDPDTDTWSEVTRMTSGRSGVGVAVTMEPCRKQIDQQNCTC
# From the text: The shift in the melting point described as a ΔTm is proportional to the concentration and affinity of the ligand. The compound potency may be compared as a rank order of either ΔTm values at a single compound concentration or in terms of KD values, estimated from concentration response curves.
# The protein was expressed in E. coli with 6His tag that was cleaved prior to receipt for use.
# Protein (KEAP Kelch) and compound solutions were dispensed into black 384-well polypropylene PCR microplates (Abgene) and overlayed with silicone oil (1 μL, Fluka, type DC 200) to prevent evaporation.
SMILES,Kd [2] [nM],EC50 [1] [nM]
"CCn1nnc2c(C)c(C(CC(=O)O)c3ccc(C)c(CN4C[C@@H]5CCCCN5c5ncccc5S4(=O)=O)n3)ccc21 (stereo in doubt) [Example 301, 3-(6-(((*S)-5,5-Dioxido-7,7a,8,9,10,11-hexahydro-6H-dipyrido[2,1-d:2′,3′-][1,2,5]thiadiazepin-6-yl)methyl)-5-methylpyridin-2-yl)-3-(1-ethyl-4-methyl-1H-benzo[d][1,2,3]triazol-5-yl)propanoic Acid]",< 1,4.7
"Cc1ccc([C@@H](CC(=O)O)c2ccc3c(nnn3CC3CC3)c2C)cc1CN1C[C@@]2(C)CCCN2c2ncccc2S1(=O)=O (single isomer, unassigned) [Example 81, (*R)-3-(1-(Cyclopropylmethyl)-4-methyl-1H-benzo[d][1,2,3]triazol-5-yl)-3-(4-methyl-3-(((*R)-7a-methyl-5,5-dioxido-7a,8,9,10-tetrahydropyrido[2,3-f]pyrrolo[2,1-d][1,2,5]thiadiazepin-6(7H)-yl)methyl)phenyl)propanoic Acid]",5.5,176
"Cc1cnc2c(c1)S(=O)(=O)N(Cc1cc([C@H](c3ccc4c(nnn4C4CC4)c3C)C(C)(C)C(=O)O)cnc1C)CC1(CCOCC1)O2 (single isomer, unassigned) [Example 228, (*S)-3-(1-Cyclopropyl-4-methyl-1H-benzo[d][1,2,3]triazol-5-yl)-2,2-dimethyl-3-(6-methyl-5-((8′-methyl-1′,1′-dioxido-2,3,5,6-tetrahydrospiro[pyran-4,4′-pyrido[2,3-b][1,4,5]oxathiazepin]-2′(3′H)-yl)methyl)pyridin-3-yl)propanoic Acid]",< 1,10
"Cc1cnc2c(c1)S(=O)(=O)N(Cc1cc([C@@H](c3ccc4c(nnn4C4CC4)c3C)C(C)(C)C(=O)O)cnc1C)CC1(COC1)O2 (single isomer, unassigned) [Example 623, (*R)-3-(1-Cyclopropyl-4-methyl-1H-benzo[d][1,2,3]triazol-5-yl)-2,2-dimethyl-3-(6-methyl-5-((8′-methyl-1′,1′-dioxidospiro[oxetane-3,4′-pyrido[2,3-b][1,4,5]]oxathiazepin]-2′(3′H)-yl)methyl)pyridine-3-yl)propanoic Acid]",< 1,7.5
"Cc1ccc(C(CC(=O)O)c2ccn3c(C(F)F)nnc3c2C)cc1CN1C[C@H]2COCCN2c2ncccc2S1(=O)=O (stereo in doubt) [Example 460, 3-(3-(Difluoromethyl)-8-methyl-[1,2,4]triazolo[4,3-a]pyridin-7-yl)-3-(3-(((*S)-5,5-dioxido-7a,8,10,11-tetrahydro-[1,4]oxazino[3,4-d]pyrido[2,3-f][1,2,5]thiadiazepin-6(7H)-yl)methyl)-4-methylphenyl)propanoic Acid]",2.73,119
"Cc1ccc([C@@H](CC(=O)O)c2ccc3c(nnn3C3CC3)c2C)cc1CN1C[C@@H]2COCCN2c2ncccc2S1(=O)=O (single isomer, unassigned) [Example 25, (*R)-3-(1-Cyclopropyl-4-methyl-1H-benzo[d][1,2,3]triazol-5-yl)-3-(3-(((*R)-5,5-dioxido-7a,8,10,11-tetrahydro-[1,4]oxazino[3,4-d]pyrido[2,3-f][1,2,5]thiadiazepin-6(7H)-yl)methyl)-4-methylphenyl)propanoic Acid]",2.12,21
"Cc1ccc([C@@H](CC(=O)O)c2ccc3c(nnn3CC3CC3)c2C)cc1CN1CC2(CC2)N(C)c2ncccc2S1(=O)=O (single isomer, unassigned) [Example 79, (*R)-3-(1-(Cyclopropylmethyl)-4-methyl-1H-benzo[d][1,2,3]triazol-5-yl)-3-(4-methyl-3-((5′-methyl-1′,1′-dioxido-5′H-spiro[cyclopropane-1,4′-pyrido[2,3-f][1,2,5]thiadiazepin]-2′(3′H)-yl)methyl)phenyl)propanoic Acid]",5.6,153

# More lines, main results first:
Kd [2] [nM],SMILES,EC50 [1] [nM]
< 1,"CCn1nnc2c(C)c(C(CC(=O)O)c3ccc(C)c(CN4CC5(COC5)Oc5ncccc5S4(=O)=O)n3)ccc21 (racemic) [Example 240, (R/S)-3-(6-((1′,1′-Dioxidospiro[oxetane-3,4′-pyrido[2,3-b][1,4,5]oxathiazepin]-2′(3′H)-yl)methyl)-5-methylpyridin-2-yl)-3-(1-ethyl-4-methyl-1H-benzo[d][1,2,3]triazol-5-yl)propanoic Acid]",85
< 1,"Cc1ccc([C@@H](c2ccn3c(C(F)(F)F)nnc3c2C)C(C)(C)C(=O)O)cc1CN1CC2(CCOCC2)Oc2nc(O[C@@H](C)CN3CCCCC3)c(C)cc2S1(=O)=O (single isomer, unassigned) [Example 602, (*S)-2,2-Dimethyl-3-(4-methyl-3-((8′-methyl-1′,1′-dioxido-7′-(((*S)-1-(piperidin-1-yl)propan-2-yl)oxy)-2,3,5,6-tetrahydrospiro[pyran-4,4′-pyrido[2,3-b][1,4,5]oxathiazepin]-2′,(3′H)-yl)methyl)phenyl)-3-(8-methyl-3-(trifluoromethyl)-[1,2,4]triazolo[4,3-a]pyridine-7-yl)propanoic Acid]",2.72
< 1,"Cc1ccc(C(CC(=O)O)c2ccn3c(C(F)(F)F)nnc3c2C)nc1CN1CC2(CC2)Oc2ncc(F)cc2S1(=O)=O (stereo not shown) [Example 508, 3-(6-((8′-Fluoro-1′,1′-dioxidospiro[cyclopropane-1,4′-pyrido[2,3-b][1,4,5]oxathiazepin]-2′(3′H)-yl)methyl)-5-methylpyridin-2-yl)-3-(8-methyl-3-(trifluoromethyl)-[1,2,4]triazolo[4,3-a]pyridin-7-yl)propanoic Acid]",92.7
< 1,"Cc1cnc2c(c1)S(=O)(=O)N(Cc1cc([C@H](c3ccn4c(C(F)(F)F)nnc4c3)C(C)(C)C(=O)O)ccc1C)CC1(CC1)O2 (single isomer, unassigned) [Example 324, (*R)-2,2-Dimethyl-3-(4-methyl-3-((8′-methyl-1′,1′-dioxidospiro[cyclopropane-1,4′-pyrido[2,3-b][1,4,5]oxathiazepin]-2′(3′H)-yl)methyl)phenyl)-3-(3-(trifluoromethyl)-[1,2,4]triazolo[4,3-a]pyridin-7-yl)propanoic Acid]",16.7
< 1,"Cc1ccc([C@H](CC(=O)O)c2ccn3c(C(F)F)nnc3c2C)cc1CN1C[C@]2(C)CCCN2c2ncccc2S1(=O)=O (single isomer, unassigned) [Example 476, (*S)-3-(3-(Difluoromethyl)-8-methyl-[1,2,4]triazolo[4,3-a]pyridin-7-yl)-3-(4-methyl-3-(((*S)-7a-methyl-5,5-dioxido-7a,8,9,10-tetrahydropyrido[2,3-f]pyrrolo[2,1-d][1,2,5]thiadiazepin-6(7H)-yl)methyl)phenyl)propanoic Acid]",219
< 1,"Cc1ccc([C@H](CC(=O)O)c2ccn3c(C(F)(F)F)nnc3c2C)cc1CN1CC2CCCCN2c2ncc(C#N)cc2S1(=O)=O (stereo in doubt) [Example 312, (*S)-3-(3-((3-Cyano-5,5-dioxido-7,7a,8,9,10,11-hexahydro-6H-dipyrido[2,1-d:2′,3′-f][1,2,5]thiadiazepin-6-yl)methyl)-4-methylphenyl)-3-(8-methyl-3-(trifluoromethyl)-[1,2,4]triazolo[4,3-a]pyridin-7-yl)propanoic Acid]",13.1
< 1,"Cc1ccc([C@H](c2ccn3c(C(F)F)nnc3c2C)C(C)(C)C(=O)O)nc1CN1CC2(CC2)Oc2nc(OCCN3CCCCC3)c(C)cc2S1(=O)=O (single isomer, unassigned) [Example 357, (*R)-3-(3-(difluoromethyl)-8-methyl-[1,2,4]triazolo[4,3-a]pyridin-7-yl)-2,2-dimethyl-3-(5-methyl-6-((8′-methyl-1′,1′-dioxido-7′-(2-(piperidin-1-yl)ethoxy)spiro[cyclopropane-1,4′-pyrido[2,3-b][1,4,5]oxathiazepin]-2′(3′H)-yl)methyl)pyridin-2-yl)propanoic Acid]",452
634,"Cc1ccc([C@H](c2ccn3c(C(F)(F)F)nnc3c2C)C(C)(C)C(=O)O)cc1CN1CC2(CCOCC2)Oc2nc(OCCN3CCCC3)c(C)cc2S1(=O)=O (single isomer, unassigned) [Example 609, (*R)-2,2-Dimethyl-3-(4-methyl-3-((8′-methyl-1′,1′-dioxido-7′-(2-(pyrrolidin-1-yl)ethoxy)-2,3,5,6-tetrahydrospiro[pyran-4,4′-pyrido[2,3-b][1,4,5]oxathiazepin]-2′(3′H)-yl)methyl)phenyl)-3-(8-methyl-3-(trifluoromethyl)-[1,2,4]triazolo[4,3-a]pyridin-7-yl)propanoic Acid]",> 20000
< 1,"Cc1ccc([C@H](CC(=O)O)c2ccn3c(C(F)(F)F)nnc3c2C)cc1CN1CC2(CCOCC2)Oc2ncccc2S1(=O)=O (single isomer, unassigned) [Example 432, (*S)-3-(3-((1′,1′-dioxido-2,3,5,6-tetrahydrospiro[pyran-4,4′-pyrido[2,3-b][1,4,5]oxathiazepin]-2′(3′H)-yl)methyl)-4-methylphenyl)-3-(8-methyl-3-(trifluoromethyl)-[1,2,4]triazolo[4,3-a]pyridin-7-yl)propanoic Acid]",103
< 1,"CCn1nnc2c(C)c(C(CC(=O)O)c3ccc(C)c(CN4CC5(CC5)Oc5ncccc5S4(=O)=O)n3)ccc21 (racemic) [Example 243, (R/S)-3-(6-((1′,1′-Dioxidospiro[cyclopropane-1,4′-pyrido[2,3-b][1,4,5]oxathiazepin]-2′(3′H)-yl)methyl)-5-methylpyridin-2-yl)-3-(1-ethyl-4-methyl-1H-benzo[d][1,2,3]triazol-5-yl)propanoic Acid]",35
